Experimental data from the supplement of paper PMC10307832.

Tests used:
Test in all cases: relative viability (nuclei count vs DMSO), 5 days (fraction); higher = more cells survive
[1] = compound: CCc1c2c(nc3ccc(OC(=O)N4CCC(N5CCCCC5)CC4)cc13)-c1cc3c(c(=O)n1C2)COC(=O)[C@]3(O)CC [Irinotecan] + Nc1nc2[nH]cc(CCc3ccc(C(=O)N[C@@H](CCC(=O)O)C(=O)O)cc3)c2c(=O)[nH]1 [Pemetrexed] (partner 0.2 µM)
Procedure, shortened: (§1)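 Cells from lung cancer lines were seeded into 1536-well plates and, one day later, dosed by pin tool. Treatments were either a single drug or a fixed dose of an anchor drug with five library-drug doses (not always all listed) in √10 steps. After 5 days, nuclei were stained in a one-step fixation (final 0.05% Triton X-100, 1% formaldehyde, 1 ug/ml Hoechst) and counted on 4× images, and relative viability is the treated-to-vehicle nuclei ratio, as the median of duplicate plates.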

[2] = compound: CC[C@@H](C)CNCC(=O)N1CCC2=C([C@@H]1COC3=CC=CC(=C3)C)C=CS2 [RU-SKI 43] + CC(C)C[C@H](NC(=O)[C@H](Cc1ccccc1)NC(=O)c1cnccn1)B(O)O [Bortezomib] (partner 0.002 µM)
Procedure, shortened: as §1

[3] = compound: CC[C@@H](C)CNCC(=O)N1CCC2=C([C@@H]1COC3=CC=CC(=C3)C)C=CS2 [RU-SKI 43] + C[C@]1(O)C[C@@H](c2nc(-c3ccc4ccc(-c5ccccc5)nc4c3)c3c(N)nccn32)C1 [Linsitinib] (partner 1 µM)
Procedure, shortened: as §1

[4] = compound: Cn1cc(-c2cnc3ccc4ccc(CS(=O)(=O)NCc5ccccn5)cc4c(=O)c3c2)cn1 [MK-8033] + COc1cccc2cc(-c3nc([C@H]4CC[C@H](C(=O)O)CC4)n4ncnc(N)c34)[nH]c12 [OSI-027] (partner 0.5 µM)
Procedure, shortened: as §1

Cell Line | relative viability ([1]; first compound 0.6325 µM) | relative viability ([1]; first compound 2 µM) | relative viability ([1]; first compound 6.325 µM) | relative viability ([1]; first compound 20 µM) | relative viability ([2]; first compound 0.1 µM) | relative viability ([2]; first compound 0.3162 µM) | relative viability ([2]; first compound 1 µM) | relative viability ([2]; first compound 3.162 µM) | relative viability ([2]; first compound 10 µM) | relative viability ([3]; first compound 0.1 µM) | relative viability ([3]; first compound 0.3162 µM) | relative viability ([3]; first compound 1 µM) | relative viability ([3]; first compound 3.162 µM) | relative viability ([3]; first compound 10 µM) | relative viability ([4]; first compound 0.02 µM) | relative viability ([4]; first compound 0.06325 µM) | relative viability ([4]; first compound 0.2 µM) | relative viability ([4]; first compound 0.6325 µM) | relative viability ([4]; first compound 2 µM)
LOU-NH91 | 0.392 | 0.402 | 0.338 | 0.182 | 0.53 | 0.485 | 0.519 | 0.502 | 0.497 | 0.94 | 0.932 | 0.945 | 0.872 | 0.944 | 0.74 | 0.453 | 0.7 | 0.667 | 0.752
LU99A | 0.162 | 0.126 | 0.155 | 0.109 | 1.08 | 1.3 | 1.15 | 1.23 | 1.03 | 0.484 | 0.596 | 0.58 | 0.597 | 0.505 | 0.315 | 0.251 | 0.299 | 0.298 | 0.307
LXF-289 | 0.733 | 0.854 | 0.54 | 0.212 | 1.06 | 0.977 | 1.03 | 1.06 | 0.974 | 0.982 | 1.01 | 0.96 | 0.983 | 0.956 | 0.809 | 0.668 | 0.667 | 0.83 | 0.806
NCI-H23 | 0.484 | 0.597 | 0.268 | 0.256 | 0.968 | 1.16 | 0.958 | 1.36 | 0.899 | 0.646 | 0.541 | 0.652 | 0.724 | 0.572 | 0.496 | 0.525 | 0.553 | 0.605 | 0.538
NCI-H322M | 0.568 | 0.659 | 0.518 | 0.266 | 1.2 | 1.3 | 1.3 | 1.24 | 1.28 | 0.832 | 0.915 | 0.967 | 1.02 | 0.893 | 0.568 | 0.442 | 0.598 | 0.604 | 0.524
NCI-H441 | 0.261 | 0.178 | 0.222 | 0.241 | 0.649 | 0.243 | 0.657 | 0.562 | 0.393 | 0.538 | 0.462 | 0.654 | 0.533 | 0.473 | 0.653 | 0.597 | 0.698 | 0.788 | 0.469
NCI-H460 | 0.0679 | 0.093 | 0.0699 | 0.0601 | 1.23 | 1.8 | 1.53 | 1.25 | 1.03 | 0.789 | 1.84 | 1.08 | 1.02 | 0.695 | 0.643 | 0.627 | 0.547 | 0.686 | 0.472
NCI-H520 | 0.509 | 0.277 | 0.273 | 0.167 | 0.572 | 0.798 | 0.721 | 0.667 | 0.597 | 0.94 | 0.906 | 0.929 | 0.996 | 0.848 | 0.256 | 0.287 | 0.302 | 0.25 | 0.222
NCI-H596 | 0.471 | 0.608 | 0.595 | 0.748 | 1.32 | 0.93 | 1.34 | 0.936 | 1.1 | 1.14 | 1.07 | 1.08 | 1.02 | 0.96 | 0.798 | 0.612 | 0.607 | 0.706 | 0.599
NCI-H647 | 0.165 | 0.154 | 0.153 | 0.105 | 0.956 | 0.841 | 1.08 | 1.25 | 1.14 | 1.15 | 1.56 | 1.38 | 1.47 | 0.982 | 0.69 | 0.723 | 0.534 | 0.46 | 0.582
NCI-H650 | 0.749 | 0.838 | 0.229 | 0.201 | 1.02 | 0.779 | 1.1 |  | 0.891 | 0.918 | 0.696 | 1.13 |  | 0.911 | 0.539 | 0.527 | 0.491 | 0.503 | 0.554
NCI-H661 | 0.886 | 0.653 | 0.41 | 0.232 | 0.776 | 0.704 | 0.835 | 0.943 | 0.764 | 0.433 | 0.645 | 0.557 | 0.518 | 0.651 | 0.727 | 0.656 | 0.687 | 0.699 | 0.668
NCI-H838 | 0.232 | 0.25 | 0.24 | 0.25 | 0.718 | 0.955 | 0.912 | 0.748 | 0.992 | 1.05 | 1.22 | 1.07 | 1 | 1 | 0.374 | 0.368 | 0.361 | 0.407 | 0.412
NCI-H1355 |  | 0.968 | 0.656 | 0.319 | 1.21 | 1.29 | 1.18 | 1.21 | 1.2 | 0.941 | 0.864 | 0.844 | 0.97 | 0.84 | 0.366 | 0.296 | 0.404 | 0.423 | 0.411
NCI-H1437 | 0.319 | 0.315 | 0.312 | 0.265 | 0.581 | 0.594 | 0.637 | 0.629 | 0.526 | 1.13 | 1.26 | 1.15 | 1.04 | 0.91 | 1.03 | 0.849 | 0.808 | 0.839 | 0.83
NCI-H1563 | 0.649 | 0.777 | 0.756 | 0.671 | 0.882 | 0.828 | 0.888 | 0.797 | 0.797 | 1.2 | 1.2 | 1.11 | 1.09 | 1.13 | 0.789 | 0.8 | 0.727 | 0.807 | 0.724
